Read-outs that look alike come from different tables or passages of the source.
Experiments:
[1] = tested on: Tissue Factor (TF) production by human melanoma cell line RPMI-7951; experiment: TF ELISA, RPMI-7951; type: cell-based
Protocol: IMUBIND Tissue Factor ELISA Kit (American Diagnostica Inc, Greenwich, Conn.) was used to determine TF concentration in each sample. The ELISA was carried out according to manufacturer's procedure.

[2] = tested on: Vascular Endothelial Growth Factor (VEGF) production by human melanoma cell line RPMI-7951; experiment: VEGF ELISA, RPMI-7951; settings: for VEGF / VEGF ELISA: RPMI-7951; for VEGF ELISA: DMSO control 3713
RPMI-7951 human melanoma = experiment: Neutral Red Assay, cell viability, RPMI-7951; settings: for Cell Viability / Neutral Red Uptake, %: RPMI-7951; for Cell Viability: DMSO = 100; for Neutral Red Uptake, %: 72 hours; for viability at 20 µM / viability at 5 µM: Homo sapiens
Protocol: RPMI-795 1, MDA-MB-231 and MDA-MB-435 cell lines were cultured in MEM-alpha medium (GIBCO-BRL, Long Island, N.Y.) containing 10% fetal bovine serum (RPMI-7951, MDA-MB-231) or 5% FBS (MDA-MB-435) at 37° C. and under 5% CO2/95% air. […] The cells were cultured in 48 well plates in all of the experiments described.
Neutral Red Assay was utilized to determine the effect of the compounds of the present invention on cell viability. Neutral Red was purchased from GIBCO-BRL (Long Island, N.Y.). Cells were plated at a concentration of 20,000 cells/well and cultured overnight. Compounds or vehicle (DMSO 0.1%) were then added and the plates were incubated for 72 hours. Supernatant from each well was either aspirated or collected and media containing Neutral Red (GIBCO-BRL, Long Island, N.Y.) at a concentration of 15 μl/ml was then added to each well. The plates were then incubated at 37° C. for 30 minutes. Next, the cells were washed with twice with PBS and alcoholic-HCl (0.5N—HCl/35% ethanol) was added to each well. The plates were then placed on a plate shaker until all residues were solubilized (pink color). The solubilized mixtures were then transferred to a 96 well plate and the absorbances were read on a micro-test plate reader at a wavelength of 570 nm.
Cell viability was determined by Neutral Red Assay.

[3] = tested on: Vascular Endothelial Growth Factor (VEGF) production by human prostate cancer cell line DU-145; experiment: VEGF ELISA, DU-145; type: cell-based; settings: for VEGF (% of DMSO): DMSO = 100%
[4] = tested on: Vascular Endothelial Growth Factor (VEGF) production by human prostate cancer cell line PC-3; experiment: VEGF ELISA, PC-3; type: cell-based; settings: for VEGF (% of DMSO): DMSO = 100%
[5] = Table 5, 5 μM, DMSO control 7054
[6] = Table 5, 20 μM, DMSO control 7054
[7] = 5 μM, DMSO control 4197 (EF-25: 1045)
[8] = 20 μM, mean of triplicate and S.D., DMSO 18760 ± 2633
[9] = Table 4, 20 μM, mean of triplicate and S.D.
[10] = 20 μM, mean of triplicate and S.D., DMSO 2103 ± 100
[11] = Homo sapiens, RPMI-7951, 72 h, read-out: VEGF
[12] = RPMI-7951, read-out: Cell Viability
[13] = RPMI-7951, 72 h, read-out: Neutral Red Uptake, %

COc1ccc(C=CC(=O)C=Cc2ccc(OC)cc2)cc1 [BA-4]
TF ([1]; 5 μM, DMSO = 100): 100%
TF ([1]; 20 μM, DMSO = 100): 30%
TF [1, 5]: 7043 pg/mL
TF [1, 6]: 2120 pg/mL
VEGF ([2]; 5 μM, DMSO = 100): 112%
VEGF [2, 7]: 4708 pg/mL
VEGF ([2]; 20 μM, DMSO = 100): 80%
VEGF ([2]; 20 μM, DMSO control 4197): 3348 pg/mL
Cell Viability (RPMI-7951 human melanoma; 5 μM): 90%
Cell Viability (RPMI-7951 human melanoma; 20 μM): 84%

COc1ccc(CCC(=O)CCc2ccc(OC)c(OC)c2)cc1OC [A]
VEGF (% of DMSO) ([3]; 20 μM): (142%)
VEGF [3, 8]: 26565 ± 9818 pg/mL
VEGF ([3]; Table 4, 20 μM, DMSO = 100): 142%
VEGF [3, 9]: 26565 ± 9818 pg/mL
VEGF (% of DMSO) ([4]; 20 μM): (82%)
VEGF [4, 10]: 1729 ± 59 pg/mL
VEGF ([4]; Table 4, 20 μM, DMSO = 100): 82%
VEGF [4, 9]: 1729 ± 59 pg/mL

COc1ccc(CCC(=O)CCc2ccc(OC)cc2)cc1 [BA-1]
TF ([1]; 20 μM, DMSO = 100): 95%
TF [1, 6]: 6669 pg/mL

Oc1ccccc1CCC(O)CCc1ccccc1O [EF32, 1,5-Bis(2-hydroxyphenyl)-pentan-3-ol]
TF ([1]; 20 μM, DMSO = 100): 123%
TF [1, 6]: 8654 pg/mL

COc1ccc(CNC(=O)NCc2ccc(OC)c(OC)c2)cc1OC [Compound A277b]
VEGF ([3]; Table 4, 20 μM, DMSO = 100): 145%
VEGF [3, 9]: 27124 ± 1346 pg/mL
VEGF ([4]; Table 4, 20 μM, DMSO = 100): 89%
VEGF [4, 9]: 1868 ± 38 pg/mL

COc1ccc(C=CC(=O)c2ccccc2)cc1OC [BA-3]
TF ([1]; 20 μM, DMSO = 100): 30%
TF [1, 6]: 2088 pg/mL
VEGF ([2]; 5 μM, DMSO = 100): 116%
VEGF [2, 7]: 4860 pg/mL
VEGF ([2]; 20 μM, DMSO = 100): 48%
VEGF ([2]; 20 μM, DMSO control 4197): 2035 pg/mL
Cell Viability (RPMI-7951 human melanoma; 5 μM): 93%
Cell Viability (RPMI-7951 human melanoma; 20 μM): 102%

O=C(NCc1ccccc1)NCc1ccccc1 [Compound A271a]
VEGF (% of DMSO) ([3]; 20 μM): (129%)
VEGF [3, 8]: 24190 ± 2160 pg/mL
VEGF ([3]; Table 4, 20 μM, DMSO = 100): 129%
VEGF [3, 9]: 24190 ± 2160 pg/mL
VEGF (% of DMSO) ([4]; 20 μM): (57%)
VEGF [4, 10]: 1196 ± 438 pg/mL
VEGF ([4]; Table 4, 20 μM, DMSO = 100): 57%
VEGF [4, 9]: 1196 ± 438 pg/mL

COc1ccccc1C1CC(=O)CC(c2ccccc2OC)O1 (centres unmarked) [BA-8]
VEGF (% of DMSO) ([3]; 20 μM): (218%)
VEGF [3, 8]: 40883 ± 6639 pg/mL
VEGF ([3]; Table 4, 20 μM, DMSO = 100): 218%
VEGF [3, 9]: 40883 ± 6639 pg/mL
VEGF (% of DMSO) ([4]; 20 μM): (78%)
VEGF [4, 10]: 1648 ± 229 pg/mL
VEGF ([4]; Table 4, 20 μM, DMSO = 100): 78%
VEGF [4, 9]: 1648 ± 229 pg/mL

COc1ccc(CCC(O)CCc2ccc(OC)c(OC)c2)cc1OC [MD279L, 1,5-Bis(3,4-dimethoxyphenyl)penta-3-ol]
TF ([1]; 5 μM, DMSO = 100): 82%
TF ELISA ([1]; 5 μM, DMSO control 7054): 5791 pg/ml/well
TF ([1]; 20 μM, DMSO = 100): 83%
TF ELISA ([1]; 20 μM, DMSO control 7054): 5858 pg/ml/well
TF [1, 5]: 5791 pg/mL
TF [1, 6]: 5858 pg/mL
VEGF ([2]; 5 μM, DMSO = 100): 22%
VEGF ELISA ([2]; 5 μM): 2235 pg/ml/well
VEGF [2, 7]: 904 pg/mL
VEGF ([2]; 20 μM, DMSO = 100): 0%
VEGF ELISA ([2]; 20 μM): 1603 pg/ml/well
VEGF ([2]; 20 μM, DMSO control 4197): 0 pg/mL
Neutral Red Uptake, % (RPMI-7951 human melanoma; 5 μM): 100 % of control
Cell Viability (RPMI-7951 human melanoma; 5 μM): 110%
Neutral Red Uptake, % (RPMI-7951 human melanoma; 20 μM): 100 % of control
Cell Viability (RPMI-7951 human melanoma; 20 μM): 109%

[O-][S+](/C=C/c1ccccc1)/C=C/c1ccccc1 [EF13, E,E-3,5-Bisbenzylidenesulfoxide]
VEGF ([2]; 20 μM, DMSO = 100): 53%
Cell Viability (RPMI-7951 human melanoma; 20 μM): 92%

COc1ccc(C=CC(O)CCc2ccc(OC)c(OC)c2)cc1OC (centres unmarked) [Compound A239]
VEGF ([2]; 20 μM, DMSO = 100): 40%
VEGF ([3]; Table 4, 20 μM, DMSO = 100): 145%
VEGF [3, 9]: 27229 ± 2148 pg/mL
VEGF ([4]; Table 4, 20 μM, DMSO = 100): 80%
VEGF [4, 9]: 1678 ± 293 pg/mL
Cell Viability (RPMI-7951 human melanoma; 20 μM): 86%

CON=C(/C=C/c1ccccc1O)/C=C/c1ccccc1O [EF6, N-(Methoxy)-1,5-bis(2-hydroxyphenyl)penta-1,4-dien-3-imine]
activity at 20 µM [2, 11]: 45%
viability at 20 µM (RPMI-7951 human melanoma; [12]): 72%

O=C1CCC(N2C(=O)c3ccccc3C2=O)C(=O)N1 (centres unmarked) [Thalidomide, reference compound]
activity at 5 µM [2, 11]: 44%
activity at 20 µM [2, 11]: 57%
VEGF ELISA ([2]; 5 μM): 1810 pg/ml/well
VEGF [2, 7]: 1865 pg/mL
VEGF ELISA ([2]; 20 μM): 2827 pg/ml/well
VEGF ([2]; 20 μM, DMSO control 4197): 2387 pg/mL
viability at 5 µM (RPMI-7951 human melanoma; [13]): 100%
viability at 20 µM (RPMI-7951 human melanoma; [13]): 100%
viability at 5 µM (RPMI-7951 human melanoma; [12]): 105%
viability at 20 µM (RPMI-7951 human melanoma; [12]): 97%
